Reference: patent publication US8877778B2, “Benzofurane compounds” (Hoffmann-La Roche Inc., priority 2010, dated 2014)

How the values were obtained:
human D3 receptor = human D3 receptor (Homo sapiens (Human), UniProt P35462); assay: Radioligand binding ([3H]-spiperone) to cloned receptors expressed in HEK-293 EBNA cells; details: HEK293 EBNA cell membranes expressing human D3
Experimental: (§1) HEK293 EBNA cells were transiently transfected with expression plasmids encoding for the human D2 or D3 or for the human 5-HT2A receptor, respectively. The cells were harvested 48 h post-transfection, washed three times with cold PBS and stored at −80° C. prior to use. The pellet was suspended in cold 50 mM Tris-HCl buffer comprising 10 mM EDTA (pH 7.4) and was homogenized with a Polytron (Kinematica AG, Basel, Switzerland) for 20-30 sec at 12.000 rpm. After centrifugation at 48.000×g for 30 min at 4° C., the pellet was resuspended in cold 10 mM Tris-HCl buffer comprising 0.1 mM EDTA (pH 7.4), homogenized, and centrifuged as above. This pellet was further resuspended in a smaller volume of ice cold 10 mM Tris-HCl buffer comprising 0.1 mM EDTA (pH 7.4) and homogenized with a Polytron for 20-30 sec at 12.000 rpm. The protein content of this homogenate was determined with the Bio-Rad (Bradford) Protein Assay (Biorad Laboratories GmbH, München, Germany) according to the instructions of the manufacturer using gamma globulin as the standard. This homogenate was stored at −80° C. in aliquots and thawed immediately prior to use.
(§2) Aliquots of membrane preparations were thawed at RT, resupended in assay buffer (D2, D3: 50 mM Tris-HCl, 120 mM NaCl, 5 mM MgCl2, 1 mM EDTA, 5 mM KCl, 1.5 mM CaCl2, pH=7.4; 5-HT2A: 50 mM Tris-HCl, 10 mM MgCl2, 1 mM EGTA, pH=7.4), homogenized with a Polytron for 20-30 sec at 12.000 rpm and adjusted to a final concentration of approximately 7.5 μg protein/well (D2, D3) and 15 μg protein/well (5-HT2A), respectively.
(§3) The binding affinity (Ki) of the compounds was determined using radioligand binding. Membranes were incubated in a total volume of 200 μl with a fixed concentration of radioligand (final concentration approximately 0.7 nM [^3H]-spiperone for D2, 0.5 nM [^3H]-spiperone for D3, and 1.1 nM [^3H]-ketanserin for 5-HT2A) and ten concentrations of test compound in ranging between 10 μM-0.1 nM for 1 h at RT. At the end of the incubation, the reaction mixtures were filtered on to unifilter 96-well white microplates with bonded GF/C filters (Packard BioScience, Zürich, Switzerland; preincubated for 1 h in 0.1% polyethylenimine (PEI) in assay buffer) with a Filtermate 196 harvester (Packard BioScience) and washed 3 times with cold assay buffer. The nonspecific binding was determined with equally composed reaction mixtures in the presence of 10 μM unlabelled spiperone. Per well 45 μl of Microscint 40 (Perkin Elmer, Schwerzenbach, Switzerland) was added, plates for sealed, shaken for 20 min and counted for 3 min on a Topcount Microplate Scintillation Counter (Can berra Packard SA, Zürich, Switzerland) with quenching correction.
(§4) The CPM value for each duplicate of a concentration of competing compound was averaged (y1), then the % specific binding was calculated according to the equation (((y1−non-specific)/(total binding−non-specific))×100). Graphs were plotted with the % specific binding using XLfit, a curve fitting program that iteratively plots the data using Levenberg-Marquardt algorithm. The single site competition analysis equation used was y=A+((B−A)/(1+((x/C)D))), where y is the % specific binding, A is the minimum y, B is the maximum y, C is the IC50, x is the log 10 of the concentration of the competing compound and D is the slope of the curve (the Hill Coefficient). […] The affinity constant (Ki) was calculated using the Cheng-Prusoff equation Ki=(IC50/1+([L]/Kd), where [L] is the concentration of radioligand and Kd is the dissociation constant of the radioligand at the receptor as determined by the saturation isotherm.

human D2 receptor = human D2 receptor (Homo sapiens (Human), UniProt P14416); assay: as above; details: HEK293 EBNA cell membranes expressing human D2
Experimental: as §1, §2, §3, §4

human 5-HT2A receptor = human 5-HT2A receptor (Homo sapiens (Human), UniProt P28223); assay: Radioligand binding ([3H]-ketanserin) to cloned receptors expressed in HEK-293 EBNA cells; details: HEK293 EBNA cell membranes expressing human 5-HT2A
Experimental: as §1, §2, §3, §4

human D2 receptor, sequence (P14416 whole entry): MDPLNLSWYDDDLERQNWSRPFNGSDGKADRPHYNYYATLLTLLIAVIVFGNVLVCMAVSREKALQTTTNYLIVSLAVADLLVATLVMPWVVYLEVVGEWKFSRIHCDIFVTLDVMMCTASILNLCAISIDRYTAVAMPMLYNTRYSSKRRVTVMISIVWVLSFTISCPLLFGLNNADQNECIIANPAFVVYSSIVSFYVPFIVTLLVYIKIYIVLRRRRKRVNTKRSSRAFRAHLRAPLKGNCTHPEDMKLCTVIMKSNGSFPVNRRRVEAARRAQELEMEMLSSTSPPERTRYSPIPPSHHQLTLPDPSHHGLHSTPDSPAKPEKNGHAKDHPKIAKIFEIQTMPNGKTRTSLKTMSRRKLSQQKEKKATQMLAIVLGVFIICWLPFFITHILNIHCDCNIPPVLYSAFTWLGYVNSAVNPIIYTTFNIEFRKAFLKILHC
human 5-HT2A receptor, sequence (P28223 whole entry): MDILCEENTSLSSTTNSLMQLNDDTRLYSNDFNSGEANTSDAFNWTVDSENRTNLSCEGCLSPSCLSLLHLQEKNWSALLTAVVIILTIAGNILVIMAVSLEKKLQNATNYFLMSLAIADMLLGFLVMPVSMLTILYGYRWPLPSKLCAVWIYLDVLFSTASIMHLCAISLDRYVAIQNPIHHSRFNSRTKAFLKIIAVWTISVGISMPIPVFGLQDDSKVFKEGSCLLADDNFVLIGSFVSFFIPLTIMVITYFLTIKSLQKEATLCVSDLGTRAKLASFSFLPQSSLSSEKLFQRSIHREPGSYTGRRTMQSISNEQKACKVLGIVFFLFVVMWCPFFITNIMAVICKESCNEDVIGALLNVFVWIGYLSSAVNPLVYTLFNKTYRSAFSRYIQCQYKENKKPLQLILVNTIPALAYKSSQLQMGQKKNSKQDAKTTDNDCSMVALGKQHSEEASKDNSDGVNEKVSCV
human D3 receptor, sequence (P35462 whole entry): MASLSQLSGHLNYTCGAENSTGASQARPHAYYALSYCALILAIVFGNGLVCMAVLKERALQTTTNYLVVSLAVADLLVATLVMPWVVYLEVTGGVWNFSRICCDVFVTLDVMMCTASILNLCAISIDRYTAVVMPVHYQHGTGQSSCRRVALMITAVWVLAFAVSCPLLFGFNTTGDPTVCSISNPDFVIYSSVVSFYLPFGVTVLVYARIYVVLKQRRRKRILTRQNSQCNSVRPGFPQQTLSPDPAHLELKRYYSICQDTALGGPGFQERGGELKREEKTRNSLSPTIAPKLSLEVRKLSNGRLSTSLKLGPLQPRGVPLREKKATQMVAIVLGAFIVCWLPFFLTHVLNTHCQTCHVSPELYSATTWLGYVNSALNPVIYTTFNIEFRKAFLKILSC

SMILES	Ki (human D3 receptor)	Ki (human D2 receptor)	Ki (human 5-HT2A receptor)	melting point
O=C(N[C@H]1CC[C@H](CCN2CCC(c3cccc4c3CCO4)CC2)CC1)c1ccc(Cl)cc1 [Example 34, trans-4-Chloro-N-(4-{2-[4-(2,3-dihydro-benzofuran-4-yl)-piperidin-1-yl]-ethyl}-cyclohexyl)-benzamide]	4.9 nM	71.9 nM	18.1 nM	224 °C
Cc1cc(CC(=O)N[C@H]2CC[C@H](CCN3CCC(c4cccc5c4CCO5)CC3)CC2)on1 [Example 19, trans-N-(4-{2-[4-(2,3-Dihydro-benzofuran-4-yl)-piperidin-1-yl]-ethyl}-cyclohexyl)-2-(3-methyl-isoxazol-5-yl)-acetamide]	2 nM	540 nM	32.9 nM	188 °C
O=C(N[C@H]1CC[C@H](CCN2CCC(c3ccc(F)c4occc34)CC2)CC1)C1CCOCC1 [Example 65, Tetrahydro-pyran-4-carboxylic acid trans-(4-{2-[4-(7-fluoro-benzofuran-4-yl)-piperidin-1-yl]-ethyl}-cyclohexyl)-amide]	34 nM	361 nM	11.6 nM	208 °C
O=C(CC(F)(F)F)N[C@H]1CC[C@H](CCN2CCC(c3cccc4c3CCO4)CC2)CC1 [Example 18, trans-N-(4-{2-[4-(2,3-Dihydro-benzofuran-4-yl)-piperidin-1-yl]ethyl}-cyclohexyl)-3,3,3-trifluoro-propionamide]	4.4 nM	345 nM	34.2 nM	197 °C
O=C(N[C@H]1CC[C@H](CCN2CCC(c3cccc4c3CCO4)CC2)CC1)c1ccc(F)cc1 [Example 35, trans-N-(4-{2-[4-(2,3-Dihydro-benzofuran-4-yl)-piperidin-1-yl]-ethyl}-cyclohexyl)-4-fluoro-benzamide]	4.9 nM	73.7 nM	14.2 nM	213 °C
CCC(=O)N[C@H]1CC[C@H](CCN2CCC(c3cccc4c3CCO4)CC2)CC1 [Example 13, trans-N-(4-{2-[4-(2,3-Dihydro-benzofuran-4-yl)-piperidin-1-yl]-ethyl}-cyclohexyl)-propionamide]	4.6 nM	346 nM	34.3 nM	192 °C
O=S(=O)(N[C@H]1CC[C@H](CCN2CCC(c3cccc4c3CCO4)CC2)CC1)c1ccc(F)cc1 [Example 50, trans-N-(4-{2-[4-(2,3-Dihydro-benzofuran-4-yl)-piperidin-1-yl]-ethyl}-cyclohexyl)-4-fluoro-benzenesulfonamide]	4.1 nM	105 nM	86.8 nM	134 °C
O=C(N[C@H]1CC[C@H](CCN2CCC(c3cccc4c3CCO4)CC2)CC1)c1ccc(-c2cccnc2)cc1 [Example 92, trans-N-(4-{2-[4-(2,3-Dihydro-benzofuran-4-yl)-piperidin-1-yl]-ethyl}-cyclohexyl)-4-pyridin-3-yl-benzamide]	5.35 nM	99.8 nM	25.4 nM	224 °C
O=C(CC1CCCO1)N[C@H]1CC[C@H](CCN2CCC(c3cccc4c3CCO4)CC2)CC1 (mixture of isomers) [Example 25, trans-N-(4-{2-[4-(2,3-Dihydro-benzofuran-4-yl)-piperidin-1-yl]-ethyl}-cyclohexyl)-rac-2-(tetrahydro-furan-2-yl)-acetamide]	–	–	–	192 °C
O=C(CC1COCCO1)N[C@H]1CC[C@H](CCN2CCC(c3cccc4occc34)CC2)CC1 (mixture of isomers) [Example 12, trans-N-{4-[2-(4-Benzofuran-4-yl-piperidin-1-yl)-ethyl]-cyclohexyl}-rac-2-[1,4]dioxan-2-yl-acetamide]	5.4 nM	219 nM	–	165 °C
O=C(CC1COCCO1)N[C@H]1CC[C@H](CCN2CCC(c3cccc4c3CCO4)CC2)CC1 (mixture of isomers) [Example 16, trans-N-(4-{2-[4-(2,3-Dihydro-benzofuran-4-yl)-piperidin-1-yl]-ethyl}-cyclohexyl)-rac-2-[1,4]dioxan-2-yl-acetamide]	–	–	22.3 nM	192 °C
O=C(N[C@H]1CC[C@H](CCN2CCC(c3cccc4c3CCO4)CC2)CC1)C1CCCOC1 (mixture of isomers) [Example 54, (RS)-Tetrahydro-pyran-3-carboxylic acid trans-(4-{2-[4-(2,3-dihydro-benzofuran-4-yl)-piperidin-1-yl]-ethyl}-cyclohexyl)-amide]	–	633 nM	21.3 nM	222 °C
O=C(N[C@H]1CC[C@H](CCN2CCC(c3cccc4c3CCO4)CC2)CC1)C1(O)CCC1 [Example 39, 1-Hydroxy-cyclobutanecarboxylic acid trans-(4-{2-[4-(2,3-dihydro-benzofuran-4-yl)-piperidin-1-yl]-ethyl}-cyclohexyl)-amide]	27.3 nM	306 nM	12.3 nM	–
O=C(N[C@H]1CC[C@H](CCN2CCC(c3cccc4c3CCO4)CC2)CC1)C(O)C(F)(F)F (mixture of isomers) [Example 37, trans-(RS)—N-(4-{2-[4-(2,3-Dihydro-benzofuran-4-yl)-piperidin-1-yl]-ethyl}-cyclohexyl)-3,3,3-trifluoro-2-hydroxy-propionamide]	9.2 nM	241 nM	–	179 °C
O=C(C[C@H]1COCCO1)N[C@H]1CC[C@H](CCN2CCC(c3cccc4c3CCO4)CC2)CC1 [Example 22, trans-N-(4-{2-[4-(2,3-Dihydro-benzofuran-4-yl)-piperidin-1-yl]-ethyl}-cyclohexyl)-(8)-2-[1,4]dioxan-2-yl-acetamide]	–	–	19.4 nM	190 °C
O=C(C[C@@H]1COCCO1)N[C@H]1CC[C@H](CCN2CCC(c3cccc4c3CCO4)CC2)CC1 [Example 21, trans-N-(4-{2-[4-(2,3-Dihydro-benzofuran-4-yl)-piperidin-1-yl]-ethyl}-cyclohexyl)-(R)-2-[1,4]dioxan-2-yl-acetamide]	–	–	27.9 nM	190 °C
O=C(N[C@H]1CC[C@H](CCN2CCC(c3cccc4c3CCO4)CC2)CC1)C1CCCO1 (mixture of isomers) [Example 53, (RS)-Tetrahydro-furan-2-carboxylic acid trans-(4-{2-[4-(2,3-dihydro-benzofuran-4-yl)-piperidin-1-yl]-ethyl}-cyclohexyl)-amide]	41.5 nM	–	13.1 nM	160 °C
O=C(C[C@H]1CCCO1)N[C@H]1CC[C@H](CCN2CCC(c3cccc4c3CCO4)CC2)CC1 [Example 31, trans-N-(4-{2-[4-(2,3-Dihydro-benzofuran-4-yl)-piperidin-1-yl]-ethyl}-cyclohexyl)-(R)-2-(tetrahydro-furan-2-yl)-acetamide]	–	–	–	192 °C
CCC(C)C(=O)N[C@H]1CC[C@H](CCN2CCC(c3cccc4c3CCO4)CC2)CC1 (mixture of isomers) [Example 62, trans-N-(4-{2-[4-(2,3-Dihydro-benzofuran-4-yl)-piperidin-1-yl]-ethyl}-cyclohexyl)-(RS)-2-methyl-butyramide]	–	1200 nM	64.4 nM	210 °C
O=C(C[C@@H]1CCCO1)N[C@H]1CC[C@H](CCN2CCC(c3cccc4c3CCO4)CC2)CC1 [Example 32, trans-N-(4-{2-[4-(2,3-Dihydro-benzofuran-4-yl)-piperidin-1-yl]-ethyl}-cyclohexyl)-(S)-2-(tetrahydro-furan-2-yl)-acetamide]	–	–	–	192 °C
